According to paper PMC9551036, “A selective and orally bioavailable VHL-recruiting PROTAC achieves SMARCA2 degradation in vivo” (Nature Communications, 2022):
Several values for one entry are separate records, joined by “and”; a condition that tells them apart may be missing. Equal values may be shown once. Read-outs that look alike come from different tables or passages of the source.

What was measured:
[1] = Bidirectional permeability measurement in Caco-2 cells; type: in vitro ADME; settings: human; for Papp B→A at 1 µM: Caco-2, pH 7.4, Caco-2, b to a, read-out: Caco-2 Pba; for efflux ratio at 2 h, 1 µM: read-out: Caco-2 Efflux ratio; for Papp A→B at 1 µM: read-out: Caco-2 Pab
Outline: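 Compound quantified by LC-MS/MS in samples taken over up to 2 h across 14–21-day Caco-2 monolayers, after 24 h preincubation with 1 µM compound. Runs done without and with 5 µM zosuquidar to probe P-gp. Efflux ratio is the quotient of duplicate-mean Papp,BA over Papp,AB.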

[2] = Microsomal stability; type: in vitro ADME; settings: for Mic. Stab. Mouse QH / Mic. Stab. Mouse: mouse liver microsomes; for Mic. Stab. Rat QH / Mic. Stab. Rat: rat liver microsomes
Procedure: […] Reactions were terminated by addition of acetonitrile and precipitates separated by centrifugation. Compound concentrations in supernatants were measured by HPLC-MS/MS and clearance was calculated from compound half-lives using the well-stirred liver model.

| SMILES | Papp B→A at 1 µM [1] | efflux ratio at 2 h, 1 µM ([1]; Caco-2, pH 7.4, Caco-2) | Papp A→B at 1 µM ([1]; Caco-2, pH 7.4, Caco-2) | Mic. Stab. Human QH ([2]; human liver microsomes) | Mic. Stab. Mouse QH [2] | Mic. Stab. Rat QH [2] | Papp A→B at 1 µM ([1]; Caco-2, pH 7.4, Caco-2, a to b) | Mic. Stab. Human ([2]; human liver microsomes) | Mic. Stab. Human degradation without NADPH ([2]; human liver microsomes, without NADPH) | Mic. Stab. Mouse [2] | Mic. Stab. Rat [2] |
| --- | --- | --- | --- | --- | --- | --- | --- | --- | --- | --- | --- |
| O=c1nc2n(C3CCCC3)c3ccccc3n2c2cccc(Br)c12 [compound 1] | 23.9 ×10⁻⁶ cm/s | 0.774 | 31 ×10⁻⁶ cm/s | 87.940% and 88.090% | 86.850% | 87.000% and 86.360% | – | – | – | – | – |
| Cc1ncsc1-c1ccc([C@H](CC[C@H](C)CCN2CCC(c3ccc4c(c3)n(C3CCCC3)c3nc(=O)c5c(Br)cccc5n43)CC2)NC(=O)[C@@H]2C[C@H](O)CN2C(=O)[C@@H](NC(=O)C2(F)CC2)C(C)(C)C)cc1 [compound 12] | 8.5 ×10⁻⁶ cm/s | – | – | 31.400% | <24.200 NADPH control off limits % | <23.100% | 3.4 ×10⁻⁶ cm/s | <24 % QH | 60% | <24 % QH | <23 % QH |
| Nc1cccc2c1c(=O)nc1n(C3CCCC3)c3ccccc3n21 [compound 2] | 17 ×10⁻⁶ cm/s | 0.459 | 37 ×10⁻⁶ cm/s | 91.040% | – | 88.170% | – | – | – | – | – |
| Cc1ncsc1-c1ccc([C@H](COCCN2CCC(c3ccc4c(c3)n(C3CCCC3)c3nc(=O)c5c(Br)cccc5n43)CC2)NC(=O)[C@@H]2C[C@@H](O)CN2C(=O)[C@@H](NC(=O)C2(N(C)C)CC2)C(C)(C)C)cc1 [compound 26] | 15.4 ×10⁻⁶ cm/s | – | < 3 ×10⁻⁶ cm/s | 86.500% and 86.000% and 86.480% | > 88.400% and 90.900% | 60.400% and 54.700% and 57.700% | – | 86 ± 0.3 % QH | – | >88 % QH | 58 ± 3 % QH |
